In patent publication US8895738B2, “Mesoionic pyrido [1, 2-A] pyrimidine pesticides” (E I du Pont de Nemours and Company, priority 2010, dated 2014):
Structures can show the parent of a compound that is named as a salt.

Experiments:
Format in all cases: in vivo
[1] = system: cotton melon aphid (Aphis gossypii); experiment: Test C: control of cotton melon aphid on cotton plant, contact and/or systemic
Excerpt: For evaluating control of cotton melon aphid (Aphis gossypii) through contact and/or systemic means, the test unit consisted of a small open container with a 6-7-day-old cotton plant inside. This was pre-infested with 30-40 insects on a piece of leaf according to the cut-leaf method described for Test B, and the soil of the test unit was covered with a layer of sand.
Test compounds were formulated and sprayed at 250 and/or 50 ppm as described for Test B. The applications were replicated three times. After spraying, the test units were maintained in a growth chamber and then visually rated as described for […].

[2] = system: rice green leafhopper (Nephotettix virescens); experiment: Test G: control of rice green leafhopper on rice plant; details: 120 h, assessed after 5 days, read-out: control efficacy: mortality
Procedure: (§1) For evaluating control of rice green leafhopper (Nephotettix virescens) through contact and/or systemic means, the test unit consisted of a plastic pot containing a 13-cm-tall rice plant covered with steel wire mesh (50 mesh) supported by a wire frame. A small amount of sand was added to form a good seal between the bottom of the wire mesh, the soil surface and the top edge of the plastic pot.
(§2) Test compounds were formulated and sprayed at 50, 10 and/or 2 ppm, and the tests were replicated three times in a manner similar to the one described for Test A. After spraying, the test units were allowed to dry for 2 h before they were post-infested with 10 green leafhoppers (3rd instar nymphs, 7-9 days post-hatch). After 5 days, each test unit was visually assessed for insect mortality.

[3] = system: corn planthopper (Peregrinus maidis); experiment: Test D: control of corn planthopper on maize plant, contact and/or systemic; details: 144 h, assessed after 6 days, read-out: control efficacy: mortality
Procedure: For evaluating control of corn planthopper (Peregrinus maidis) through contact and/or systemic means, the test unit consisted of a small open container with a 3-4-day-old maize plant (spike) inside. White sand was added to the top of the soil prior to application. Test compounds were formulated and sprayed at 250, 50, 10 and/or 2 ppm, and replicated three times as described for Test A. After spraying, the test units were allowed to dry for 1 h before they were post-infested with ˜15-20 nymphs (18 to 21 day old) by sprinkling them onto the sand with a salt shaker. A black, screened cap was placed on the top of each test unit, and the test units were held for 6 days in a growth chamber at 22-24° C. and 50-70% relative humidity. Each test unit was then visually assessed for insect mortality.

[4] = system: green peach aphid (Myzus persicae); experiment: Test B: control of green peach aphid on radish plant, contact and/or systemic; details: 144 h, assessed after 6 days
Excerpt: For evaluating control of green peach aphid (Myzus persicae) through contact and/or systemic means, the test unit consisted of a small open container with a 12-15-day-old radish plant inside. This was pre-infested by placing on a leaf of the test plant 30-40 aphids on a piece of leaf excised from a culture plant (cut-leaf method). The aphids moved onto the test plant as the leaf piece desiccated. After pre-infestation, the soil of the test unit was covered with a layer of sand.
Test compounds were formulated and sprayed at 250, 50 and/or 10 ppm as described for Test A. The applications were replicated three times. After spraying of the formulated test compound, each test unit was allowed to dry for 1 h and then a black, screened cap was placed on top. The test units were held for 6 days in a growth chamber at 19-21° C. and 50-70% relative humidity. Each test unit was then visually assessed for insect mortality.

[5] = system: Rice plants (indica cultivar ‘MTU1010’); experiment: Test I: vigor of rice crop outdoors, foliar application, West Godavri; details: 20 days after application, Nilaparvata lugens level high
Procedure: To evaluate the effect of application of a compound of the invention on the vigor of rice crops grown under outdoor conditions, Tests 1 through 0 were conducted. “a.i.” refers to the amount of active ingredient applied.
Rice plants (indica cultivar ‘MTU1010’) were transplanted into flooded 5 m×3 m test plots of clay loam soil in the delta region of the West Godavri district, Andhra Pradesh, India, during the rainy season, and grown using local agronomic practices. After 47 days, aqueous mixtures of Compound 3 were applied to the foliage of the rice plants at 12.5, 25 or 50 g a.i./ha in a spray volume of 387 L/ha using a backpack sprayer. Plots of unsprayed rice plants were used as controls. Each treatment and control was replicated three times, and the plots were arranged in a randomized complete block design. At the time of application of Compound 3, the pest level of rice brown planthopper (Nilaparvata lugens) was high, i.e. much above the level considered economically significant.
The crop vigor of the rice plants in each plot was visually rated based on general external appearance (e.g., plant height) 20 days after application on a 0 to 200% scale, wherein the plants in untreated control plots were considered to represent 100%, and the results for the three replicates for each treatment were averaged. More than 100% means the plants in a treated plot were more vigorous than those in the untreated control plot, while less than 100% means the plants in the treated pot were less vigorous.

[6] = system: rice brown planthopper (Nilaparvata lugens); experiment: Test H: control of rice brown planthopper on rice plant; details: 120 h, assessed after 5 days, read-out: control efficacy: mortality
Procedure: as §1, with “brown planthopper (Nilaparvata lugens)” for “green leafhopper (Nephotettix virescens)”
as §2, with “at 10, 2” for “at 50, 10”, “and/or 0.4” for “and/or 2”, “10 brown planthoppers” for “10 green leafhoppers”

Which results are given for `O=c1c(-c2cccc(C(F)(F)F)c2)c([O-])[n+](Cc2cncnc2)c2ccccn12` [Compound 3, 2-hydroxy-4-oxo-1-(5-pyrimidinylmethyl)-3-[3-(trifluoromethyl)phenyl]-4H-pyrido[1,2-a]pyrimidinium inner salt]?
mortality at 50 ppm ([1]; sprayed at 50 ppm): ≥ 80%; mortality at 250 ppm ([1]; sprayed at 250 ppm): ≥ 80%; mortality at 2 ppm ([2]; sprayed at 2 ppm): ≥ 80%; mortality at 10 ppm ([2]; sprayed at 10 ppm): ≥ 80%; mortality at 50 ppm ([2]; sprayed at 50 ppm): ≥ 80%; mortality at 2 ppm ([3]; sprayed at 2 ppm): ≥ 80%; mortality at 10 ppm ([3]; sprayed at 10 ppm): ≥ 80%; mortality at 50 ppm ([3]; sprayed at 50 ppm): ≥ 80%; mortality at 250 ppm ([3]; sprayed at 250 ppm): ≥ 80%; mortality at 50 ppm ([4]; sprayed at 50 ppm): ≥ 80%; mortality at 250 ppm ([4]; sprayed at 250 ppm): ≥ 80%; crop vigor (visual rating, 0 to 200% scale, untreated = 100%) ([5]; 12.5 g a.i./ha foliar): 140%; crop vigor (visual rating, 0 to 200% scale, untreated = 100%) ([5]; 25 g a.i./ha foliar): 143%; crop vigor (visual rating, 0 to 200% scale, untreated = 100%) ([5]; 50 g a.i./ha foliar): 143%; mortality at 2 ppm ([6]; sprayed at 2 ppm): ≥ 80%; mortality at 10 ppm ([6]; sprayed at 10 ppm): ≥ 80%
